Values after ≈ are worked out from the molar mass of the structure shown.

The record followed here is article PMC9413440, “An Iterative Approach Guides Discovery of the FabI Inhibitor Fabimycin, a Late-Stage Antibiotic Candidate with In Vivo Efficacy against Drug-Resistant Gram-Negative Infections” (ACS Central Science, 2022).

In one series the test system is S. aureus USA300 LAC. The series is described as follows: Neutropenic thigh infection model. It is filed as in vivo, mouse. The note with it: neutropenic CD-1 mice, MRSA clinical isolate; 5 mg/kg retro-orbital IV 2 and 7 h postinfection; burden at 24 h. How it is done: (§1) Neutropenic thigh infection model
(§2) Acclimated CD-1 mice (see above) were rendered neutropenic prior to the experiment via cyclophosphamide treatment. […]
For the gram-positive infection model S. aureus USA300LAC was established intramuscular injection at 2.3 * 10^6 CFU/mouse. Mice were treated with FabI inhibitors at 2 and 7 hours post-infection with burden being assessed at 24 hours post-infection. […]
The protocol to assess fabimycin’s efficacy in A. baumannii-infected mice (strain: AR-0088) was approved by the IACUC at Pharmacology Discovery Services, Taiwan, Ltd. (protocol number: IM003-01282019). In this study, neutropenic female BALB/c mice 7-8 weeks in age from BioLASCO Taiwan (AAALAC-certified Charles River Licensee) weighing 18 ± 2 grams were used. The mice were rendered neutropenic and inoculated in the same method as used for the pharmacokinetic study. […]
(§3) Animals were euthanized using compressed CO2 gas in a CO2 gas chamber. […] Bacterial burden in the tissue homogenates was determined by performing 10-fold serial dilutions and plating 0.1 mL of each to nutrient agar plates. Colonies were counted after 18 - 24 h incubation. The colony-forming unit value per tissue (CFU/thigh) was calculated. […]
(§4) IM011-12282020). […] Tissues were collected and pathogen burden evaluated by dilution plating technique on nutrient agar plates.

The next series addresses hERG ion channel (Homo sapiens, UniProt Q12809). The series is described as follows: hERG activity. A general note: Block of hERG is tested as a sign of cardiac risk.
In another series the test system is E. coli AR-0055. The series is described as follows: Urinary tract infection model. It is filed as in vivo, mouse. The note with it: 33.3 mg/kg IV three times a day, 168 h postinfection. As for the experimental part: Urinary tract infection model
The protocol to assess fabimycin’s efficacy in a urinary tract infection was approved by the IACUC (protocol number:
IM011-12282020). In this study specific pathogen-free C3H/HeJ (Tlr4Lps-d) mice that were 7-8 weeks were used and provided with 5% glucose for 6 days prior to infection and for the duration of the experiment.12, 13 On day 0, mice were infected with E. coli AR-0055 (1.38 * 10^9 CFU/mouse, transurethral) while under pentobarbital anesthesia (50 mg/kg, IP). Treatment was initiated 96 hours post-infection with test articles. Fabimycin was formulated in 17% Cremophor EL/3% SBE-β-CD and administered intravenously while the control, colistin, was formulated in 0.9% NaCl and administered subcutaneously. Doses were administered once, twice, or three times daily for 3 consecutive days with animal sacrifice and burden enumeration at 168 hours post-infection. Tissues were collected and pathogen burden evaluated by dilution plating technique on nutrient agar plates.

In another series the test system is HFF-1, A549, HepG2 cells. The note with it: 72 h. How it is done:
HFF-1 cells (newborn) were obtained from the ATCC. HFF-1 cells were grown in Dulbecco’s Modified Eagle’s minimum essential medium with 15% fetal bovine serum (Gemini Benchmark; catalogue number: 100-106), 100 µg/mL penicillin and 100 µg/mL streptomycin. A549 cells ([…], adult) were obtained from the ATCC. A549 cells were grown in Roswell Park Memorial Institute (RPMI) media with 100 µg/mL penicillin and 10% fetal bovine serum (FBS). HepG2 cells were authenticated by the University of Arizona Genetics Core using an autosomal STR profile. HepG2 cells were grown in Dulbecco’s Modified Eagle’s minimum essential medium with 10% fetal bovine serum. All cells were cultured at 37 °C under a 5% CO2 environment. Cell lines were authenticated by a commercial vendor and inspected visually in house. Cell lines were not tested for Mycoplasma contamination. The media was prepared by the University of Illinois School of Chemical Sciences Cell Media Facility.
H. sapiens HFF-1, A549, and HepG2 cells were seeded (3,000-6,000 cells/well) in a 96-well plate (Greiner Bio-One;

The next series has as its system A. baumannii 19606. In words: MIC, broth microdilution (CLSI). It is filed as cell-based. The note with it: Acinetobacter baumannii. The method, boiled down: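 Broth microdilution per CLSI guidelines in cation-adjusted Mueller Hinton broth, run in biological triplicate unless noted otherwise.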
For orientation: Broth dilution looks for growth in wells or tubes with falling amounts of substance.

The next series concerns A. baumannii AR-0088. The series is described as follows: Dose-ranging and efficacy, neutropenic thigh infection. It is filed as in vivo, mouse. Particulars: neutropenic BALB/c mice, burden at 26 h.
Excerpt: as §1, §2
Dose-ranging and efficacy of fabimycin
The protocol to assess fabimycin’s efficacy in A. baumannii-infected mice (strain: AR-0088) was approved by the IACUC at Pharmacology Discovery Services, Taiwan, Ltd. (protocol number: IM003-01282019). In this study, neutropenic female BALB/c mice 7-8 weeks in age from BioLASCO Taiwan (AAALAC-certified Charles River Licensee) weighing 18 ± 2 grams were used. The mice were rendered neutropenic and inoculated in the same method as used for the pharmacokinetic study. Fabimycin was formulated in 17% Cremophor EL/3% SBE-β-CD and IV administered. Colistin was formulated in 0.9% NaCl and subcutaneously (SC) administered.
5 or 30 minutes after dosing with respect to IV and SC route to detect acute toxicity, which was recorded and reported, […]
as §3, §4

hERG ion channel, sequence (Q12809 whole entry): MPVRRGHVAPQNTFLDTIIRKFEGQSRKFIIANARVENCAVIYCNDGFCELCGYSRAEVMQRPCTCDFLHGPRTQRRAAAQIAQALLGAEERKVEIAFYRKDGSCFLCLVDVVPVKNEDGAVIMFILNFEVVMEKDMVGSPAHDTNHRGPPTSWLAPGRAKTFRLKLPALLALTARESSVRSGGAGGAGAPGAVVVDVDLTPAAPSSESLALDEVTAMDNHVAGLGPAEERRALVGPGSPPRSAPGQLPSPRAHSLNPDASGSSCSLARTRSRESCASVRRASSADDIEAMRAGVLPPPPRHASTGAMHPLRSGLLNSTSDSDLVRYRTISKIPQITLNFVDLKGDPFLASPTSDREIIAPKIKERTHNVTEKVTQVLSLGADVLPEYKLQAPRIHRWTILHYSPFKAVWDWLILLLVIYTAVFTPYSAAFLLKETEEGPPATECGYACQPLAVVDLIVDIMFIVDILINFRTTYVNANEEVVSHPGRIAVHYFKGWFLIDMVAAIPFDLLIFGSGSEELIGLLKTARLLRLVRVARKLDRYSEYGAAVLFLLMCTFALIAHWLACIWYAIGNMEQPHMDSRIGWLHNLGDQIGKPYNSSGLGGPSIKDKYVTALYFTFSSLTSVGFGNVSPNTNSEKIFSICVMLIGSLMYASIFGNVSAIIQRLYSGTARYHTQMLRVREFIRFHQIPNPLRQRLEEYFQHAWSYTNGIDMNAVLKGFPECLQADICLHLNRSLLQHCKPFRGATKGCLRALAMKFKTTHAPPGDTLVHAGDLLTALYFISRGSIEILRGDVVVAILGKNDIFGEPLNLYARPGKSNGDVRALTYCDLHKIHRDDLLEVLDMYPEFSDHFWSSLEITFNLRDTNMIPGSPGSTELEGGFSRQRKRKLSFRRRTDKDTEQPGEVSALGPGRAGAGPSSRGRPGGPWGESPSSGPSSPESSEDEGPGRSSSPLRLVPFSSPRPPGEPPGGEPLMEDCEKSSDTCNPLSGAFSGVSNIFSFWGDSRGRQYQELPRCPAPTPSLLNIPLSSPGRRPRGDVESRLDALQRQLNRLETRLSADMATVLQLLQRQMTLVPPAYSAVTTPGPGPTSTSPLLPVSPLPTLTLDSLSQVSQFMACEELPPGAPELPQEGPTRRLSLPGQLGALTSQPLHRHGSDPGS

By MIC is commonly meant the lowest concentration found to suppress growth. A low value points to a more susceptible organism. Regarding `Cc1c(CN(C)C(=O)/C=C/c2cnc3c(c2)CC[C@H](N)C(=O)N3)oc2ccccc12` [fabimycin], the “reduction of bacterial burden” value is “significantly greater reduction of bacterial burden relative to Debio-1452” with S. aureus USA300 LAC and ~2 log(CFU/thigh) in the series on A. baumannii AR-0088 (75 mg/kg IV four times a day, NDM-1 containing strain). Besides, the “activity against the hERG ion channel” value on hERG ion channel was “lower activity against the hERG ion channel relative to both Debio-1452 and Debio-1452-NH3”. In addition, the “log10 reduction in bacterial load relative to the vehicle” value worked out at 2.8 log10 in the series on E. coli AR-0055 (bladder), 1.9 log10 in the series with E. coli AR-0055 (kidney), 2.9 log10 with E. coli AR-0055 (liver) and 3.0 log10 in the series with E. coli AR-0055 (spleen). In the series on HFF-1, A549, HepG2 cells, the “cytotoxicity against human cell lines” value is “less cytotoxic relative to Debio-1452-NH3”. The compound also registered an MIC in the series with A. baumannii 19606 of 2 µg/mL (≈ 4.94 µM). In addition, the “dose at which significant dose-dependent responses begin” value in the series on A. baumannii AR-0088 (IV four times a day, doses 1.25–75 mg/kg) was determined as 30 mg/kg.
